“And” between values parts separate entries of the source, which are not always exact repeats. Equal entries are not always repeated.
Columns and labels:
[1] = test system: A/Aichi/2/68 (H3N2) influenza virus; test: Virus titration in lung tissue of infected mice (CAM fragments, hemagglutination reaction); format: in vivo, white mice; conditions: 3rd day
[2] = test system: A/Aichi/2/68 (H3N2) influenza virus; test: Experimental lethal influenza infection in mice: mortality, average life, protection index; format: in vivo, white mice; conditions: for Average life / Protection index, % / total mortality (number of dead/infected): reference preparation, dose not given; for total mortality (number of dead/infected): day 15
[3] = Concentration of diindolylmethane in volunteers' plasma after oral administration; format: in vivo; conditions: same dosage; range of concentrations approximately 300 ng/ml
Procedure: In all the clinical studies, pharmacokinetics comparison was made between the DIM preparation of the invention on the basis of A-type fish oil with the concentration 1-10% of preparation, the DIM preparation on the basis of Omega 3 and the crystalline DIM in the same dosages. […] The maximum DIM concentration in blood was observed two hours after the administration of preparations and achieved approximately 300 ng/ml.

[4] = test system: A/Aichi/2/68 (H3N2) influenza virus; test: Surface of chronic postinfluenzal pneumonia foci in lungs of surviving mice; format: in vivo, white mice; conditions: for Surface of chronic pneumonia foci (% of total surface of the lung surface): reference preparation, dose not given, survivors day 15
Procedure: The animals that survived to the 15th day after infection were autopsied and their lungs were studied macroscopically. Visual evaluation was carried out of the surface of chronic foci of postinfluenzal pneumonia remaining in the lung tissue of mice after the acute stage of the influenza infection within the entire life of the animal. The surface of the lesion foci was expressed in percentage to the entire lung surface.

c1ccc2c(Cc3c[nH]c4ccccc34)c[nH]c2c1 [crystalline DIM, 3,3-diindolylmethane]
Infectious titer of the influenza virus (lg EID50) in lungs ([1]; 60 mg/kg orally, virus dosage 1, group average): 3.8±0.17 lg EID50
Infectious titer of the influenza virus (lg EID50) in lungs ([1]; 60 mg/kg orally, virus dosage 1, individual animals): 4.0 lg EID50 (2×) and 3.5 lg EID50
Infectious titer of the influenza virus (lg EID50) in lungs ([1]; 60 mg/kg orally, virus dosage 2, group average): 4.5±0.29 lg EID50
Infectious titer of the influenza virus (lg EID50) in lungs ([1]; 60 mg/kg orally, virus dosage 2, individual animals): 5.0 lg EID50 and 4.0 lg EID50 and 4.5 lg EID50
survival of infected animals (Fig. 2) ([2]; virus dosage 10 LD50): had no practical influence on the survival
detection of DIM in the patients' plasma [3]: did not enable one to discover it in this range of concentrations

CC(N)C12CC3CC(CC(C3)C1)C2 (centres unmarked) [rimantadine]
Infectious titer of the influenza virus (lg EID50) in lungs ([1]; 50 mg/kg orally, virus dosage 1, group average): 2.3±0.17 lg EID50
Infectious titer of the influenza virus (lg EID50) in lungs ([1]; 50 mg/kg orally, virus dosage 1, individual animals): 2.0 lg EID50 and 3.0 lg EID50 and 2.5 lg EID50
Infectious titer of the influenza virus (lg EID50) in lungs ([1]; 50 mg/kg orally, virus dosage 2, group average): 2.7±0.17 lg EID50
Infectious titer of the influenza virus (lg EID50) in lungs ([1]; 50 mg/kg orally, virus dosage 2, individual animals): 2.5 lg EID50 (2×) and 3.0 lg EID50
Average life ([2]; virus dosage 1 LD50): 14.4 days
Protection index, % ([2]; virus dosage 1 LD50): 80%
total mortality (number of dead/infected) ([2]; virus dosage 1 LD50): 1/10
Average life ([2]; virus dosage 10 LD50): 13.9 days
Protection index, % ([2]; virus dosage 10 LD50): 78%
total mortality (number of dead/infected) ([2]; virus dosage 10 LD50): 2/10
protection index ([2]; text summary over both virus dosages): 78-80%
effect on the surface of chronic pneumonia foci [4]: reduced this index for each infecting dosage
Surface of chronic pneumonia foci (% of total surface of the lung surface) ([4]; viral dosage 1 LD50): 31±11.8%
Surface of chronic pneumonia foci (% of total surface of the lung surface) ([4]; viral dosage 10 LD50): 27±6.8%
